Experimental data as given in US10463670B2, “Use of non-peptide NK1 antagonists in a predetermined dose for the treatment of cancer” (SERVICIO ANDALUZ DE SALUD, priority 2013, dated 2019).
“Also recorded” adds a separate entry of the source.

Experiments:
[1] = test system: Human B cell lymphoma BC-1; assay: MTS cell proliferation, nanomolar antagonist, BC-1; type: cell-based; conditions: Aprepitant 1, 5 and 7 nM, vs cells grown in the absence of antagonist, time dependant
Experimental: Cell cultures of various commercial tumour cell lines stated in table 13 were used. [table] […] The number of cells was quantified using a Coulter counter. […] The culture plates were grown in the presence of increasing concentrations of non-peptide NK1 receptor antagonists. To obtain the staining in the proliferation assays, 20 μl of MTS were added to each one of the wells of the cell culture plates 90 minutes before reading the samples in a multiscan spectrophotometer (TECAN Spectra classic, Barcelona, Spain) at 492 nm (assay wavelength) and 690 nm (reference wavelength). The different doses were tested in duplicate and each experiment was performed in triplicate. The antagonist Aprepitant was used at the following concentrations: 1 nanomolar -nM-, 5 nanomolar -nM- and 7 nanomolar -nM-. […] As proliferation control, the cells were grown in the absence of said antagonist. This is expressed in FIGS. 1 to 10.

brain tumours = conditions: Aprepitant 3 mg per kilogram of weight and day; mice; Lewis et al. 2013; cited from earlier work
[2] = test system: human lung cancer, reference HCC-44; assay: Lung cancer HCC-44 tumours implanted s.c. in nude mice, Aprepitant alone; type: in vivo
Experimental: (§1) Immunocompromised female mice, 5-6 weeks of age were used, nu/nu Balb/c nude mice, provided by Harlan Iberica Barcelona (Spain). They were kept at 24° C. and in sterile conditions with food and water “ad libitum”. They were injected with 2×10^7 tumour cells, corresponding to cancer (human lung cancer, reference HCC-44 supplied by DSMZ) in 200 μl of PBS subcutaneous route. The tumour size was measured and the mice were evaluated for their state of health and weight daily. The mice were randomized in nine groups when the tumours reached a volume of 75 mm^3. One of the groups was treated with 200 μl of placebo (control group) and the eight remaining groups with doses of 10 (group 1), 20 (group 2), 30 (group 3), 40 (group 4), 50 (group 5), 60 (group 6), 70 (group 7) and 80 (group 8) mg per kilogram of weight and day of the NK1 receptor antagonist Aprepitant. 3 animals were treated per group, during 28 days. All the mice were sacrificed at the end of the experiment.

[3] = test system: human fibrosarcoma; reference HT-1080; assay: Fibrosarcoma HT-1080 tumours implanted s.c. in nude mice, Aprepitant alone; type: in vivo
Experimental: as §1
Immunocompromised female mice, 5-6 weeks of age were used, in the same conditions as explained in example 1. They were injected with 2×10^7 tumour cells, corresponding to a mesenchymal cell line tumour (human fibrosarcoma; reference HT-1080; supplied by DSMZ) in 200 μl of PBS by subcutaneous route. The tumour size was measured and the mice were evaluated for their state of health and weight daily. The mice were randomized in nine groups when the tumours reached a volume of 75 mm^3. One of the groups was treated with 200 μl of placebo (control group) and the eight remaining groups with doses of 10 (group 1), 20 (group 2), 30 (group 3), 40 (group 4), 50 (group 5), 60 (group 6), 70 (group 7) and 80 (group 8) mg per kilogram of weight and day of the NK1 receptor antagonist Aprepitant. 3 animals were treated per group, during 28 days. All the mice were sacrificed at the end of the experiment.

[4] = Aprepitant 10 mg/kg/day, 7 days
[5] = Aprepitant 10 mg/kg/day, 14 days
[6] = Aprepitant 10 mg/kg/day, 21 days
[7] = Aprepitant 10 mg/kg/day, 28 days
[8] = Aprepitant 20 mg/kg/day, 7 days
[9] = Aprepitant 20 mg/kg/day, 14 days
[10] = Aprepitant 20 mg/kg/day, 21 days
[11] = Aprepitant 20 mg/kg/day, 28 days
[12] = Aprepitant 30 mg/kg/day, 7 days
[13] = Aprepitant 30 mg/kg/day, 14 days
[14] = Aprepitant 30 mg/kg/day, 21 days
[15] = Aprepitant 30 mg/kg/day, 28 days
[16] = Aprepitant 40 mg/kg/day, 7 days
[17] = Aprepitant 40 mg/kg/day, 14 days
[18] = Aprepitant 40 mg/kg/day, 21 days
[19] = Aprepitant 40 mg/kg/day, 28 days
[20] = Aprepitant 50 mg/kg/day, 7 days
[21] = Aprepitant 50 mg/kg/day, 14 days
[22] = Aprepitant 50 mg/kg/day, 21 days
[23] = Aprepitant 50 mg/kg/day, 28 days
[24] = Aprepitant 60 mg/kg/day, 7 days
[25] = Aprepitant 60 mg/kg/day, 14 days
[26] = Aprepitant 60 mg/kg/day, 21 days
[27] = Aprepitant 60 mg/kg/day, 28 days
[28] = Aprepitant 70 mg/kg/day, 7 days
[29] = Aprepitant 70 mg/kg/day, 14 days
[30] = Aprepitant 70 mg/kg/day, 21 days
[31] = Aprepitant 70 mg/kg/day, 28 days
[32] = Aprepitant 80 mg/kg/day, 7 days
[33] = Aprepitant 80 mg/kg/day, 14 days
[34] = Aprepitant 80 mg/kg/day, 21 days
[35] = Aprepitant 80 mg/kg/day, 28 days

C[C@@H](O[C@H]1OCCN(Cc2n[nH]c(=O)[nH]2)[C@H]1c1ccc(F)cc1)c1cc(C(F)(F)F)cc(C(F)(F)F)c1 [Aprepitant]
Proliferation of tumour cells (MTS) [1]: increase was observed of proliferation | Reduction in brain tumour size (brain tumours): does not cause a reduction in brain tumour sizes; also recorded: does not produce reduction in the size of brain tumours | Tumour size (mean volume of the tumour) [2, 4]: 210 ± 2 cubic millimeters | Tumour size (mean volume of the tumour) [2, 5]: 190 ± 4 cubic millimeters | Tumour size (mean volume of the tumour) [2, 6]: 165 ± 6 cubic millimeters | Tumour size (mean volume of the tumour) [2, 7]: 135 ± 3 cubic millimeters | Tumour size (mean volume of the tumour) [2, 8]: 205 ± 8 cubic millimeters | Tumour size (mean volume of the tumour) [2, 9]: 170 ± 3 cubic millimeters | Tumour size (mean volume of the tumour) [2, 10]: 145 ± 4 cubic millimeters | Tumour size (mean volume of the tumour) [2, 11]: 110 ± 4 cubic millimeters | Tumour size (mean volume of the tumour) [2, 12]: 185 ± 4 cubic millimeters | Tumour size (mean volume of the tumour) [2, 13]: 150 ± 6 cubic millimeters | Tumour size (mean volume of the tumour) [2, 14]: 135 ± 5 cubic millimeters | Tumour size (mean volume of the tumour) [2, 15]: 105 ± 2 cubic millimeters | Tumour size (mean volume of the tumour) [2, 16]: 155 ± 5 cubic millimeters | Tumour size (mean volume of the tumour) [2, 17]: 130 ± 4 cubic millimeters | Tumour size (mean volume of the tumour) [2, 18]: 120 ± 4 cubic millimeters | Tumour size (mean volume of the tumour) [2, 19]: 95 ± 4 cubic millimeters | Tumour size (mean volume of the tumour) [2, 20]: 130 ± 4 cubic millimeters | Tumour size (mean volume of the tumour) [2, 21]: 115 ± 7 cubic millimeters | Tumour size (mean volume of the tumour) [2, 22]: 105 ± 6 cubic millimeters | Tumour size (mean volume of the tumour) [2, 23]: 85 ± 6 cubic millimeters | Tumour size (mean volume of the tumour) [2, 24]: 110 ± 3 cubic millimeters | Tumour size (mean volume of the tumour) [2, 25]: 95 ± 8 cubic millimeters | Tumour size (mean volume of the tumour) [2, 26]: 80 ± 7 cubic millimeters | Tumour size (mean volume of the tumour) [2, 27]: 65 ± 4 cubic millimeters | Tumour size (mean volume of the tumour) [2, 28]: 95 ± 4 cubic millimeters | Tumour size (mean volume of the tumour) [2, 29]: 80 ± 6 cubic millimeters | Tumour size (mean volume of the tumour) [2, 30]: 65 ± 8 cubic millimeters | Tumour size (mean volume of the tumour) [2, 31]: 40 ± 7 cubic millimeters | Tumour size (mean volume of the tumour) [2, 32]: 70 ± 4 cubic millimeters | Tumour size (mean volume of the tumour) [2, 33]: 55 ± 7 cubic millimeters | Tumour size (mean volume of the tumour) [2, 34]: 40 ± 6 cubic millimeters | Tumour size (mean volume of the tumour) [2, 35]: 25 ± 5 cubic millimeters | Tumour size (mean volume of the tumour) [3, 4]: 220 ± 4 cubic millimeters | Tumour size (mean volume of the tumour) [3, 5]: 205 ± 4 cubic millimeters | Tumour size (mean volume of the tumour) [3, 6]: 195 ± 6 cubic millimeters | Tumour size (mean volume of the tumour) [3, 7]: 170 ± 6 cubic millimeters | Tumour size (mean volume of the tumour) [3, 8]: 195 ± 5 cubic millimeters | Tumour size (mean volume of the tumour) [3, 9]: 180 ± 5 cubic millimeters | Tumour size (mean volume of the tumour) [3, 10]: 165 ± 7 cubic millimeters | Tumour size (mean volume of the tumour) [3, 11]: 150 ± 7 cubic millimeters | Tumour size (mean volume of the tumour) [3, 12]: 175 ± 5 cubic millimeters | Tumour size (mean volume of the tumour) [3, 13]: 155 ± 6 cubic millimeters | Tumour size (mean volume of the tumour) [3, 14]: 135 ± 5 cubic millimeters | Tumour size (mean volume of the tumour) [3, 15]: 140 ± 4 cubic millimeters | Tumour size (mean volume of the tumour) [3, 16]: 160 ± 4 cubic millimeters | Tumour size (mean volume of the tumour) [3, 17]: 150 ± 3 cubic millimeters | Tumour size (mean volume of the tumour) [3, 18]: 120 ± 5 cubic millimeters | Tumour size (mean volume of the tumour) [3, 19]: 110 ± 6 cubic millimeters | Tumour size (mean volume of the tumour) [3, 20]: 145 ± 5 cubic millimeters | Tumour size (mean volume of the tumour) [3, 21]: 135 ± 7 cubic millimeters | Tumour size (mean volume of the tumour) [3, 22]: 100 ± 3 cubic millimeters | Tumour size (mean volume of the tumour) [3, 23]: 100 ± 7 cubic millimeters | Tumour size (mean volume of the tumour) [3, 24]: 135 ± 7 cubic millimeters | Tumour size (mean volume of the tumour) [3, 25]: 120 ± 6 cubic millimeters | Tumour size (mean volume of the tumour) [3, 26]: 90 ± 8 cubic millimeters | Tumour size (mean volume of the tumour) [3, 27]: 85 ± 4 cubic millimeters | Tumour size (mean volume of the tumour) [3, 28]: 120 ± 8 cubic millimeters | Tumour size (mean volume of the tumour) [3, 29]: 100 ± 4 cubic millimeters | Tumour size (mean volume of the tumour) [3, 30]: 85 ± 6 cubic millimeters | Tumour size (mean volume of the tumour) [3, 31]: 80 ± 7 cubic millimeters | Tumour size (mean volume of the tumour) [3, 32]: 100 ± 4 cubic millimeters | Tumour size (mean volume of the tumour) [3, 33]: 90 ± 8 cubic millimeters | Tumour size (mean volume of the tumour) [3, 34]: 70 ± 8 cubic millimeters | Tumour size (mean volume of the tumour) [3, 35]: 65 ± 9 cubic millimeters
